Experimental data as given in PMC12636382, “Human and zebrafish mineralocorticoid receptors reporter cell assays to assess the activity of chemicals” (iScience, 2025).
Where “and” joins values, the source holds several entries; their conditions need not be identical. Equal entries are not always repeated. Where two headings read alike, the source gives them in different places.

Tests used:
[1] = target: zebrafish MR (zfMR) (Danio rerio, UniProt A6YIH7); experiment: UG5LN-GAL4-zfMR luciferase reporter cell assay (agonism and antagonism tests); assay type: cell-based; settings: for EC50: agonism test, chemical alone, mean of at least three experiments, read-out: EC50
Chain of zebrafish MR (zfMR) (A6YIH7 entry or part of it): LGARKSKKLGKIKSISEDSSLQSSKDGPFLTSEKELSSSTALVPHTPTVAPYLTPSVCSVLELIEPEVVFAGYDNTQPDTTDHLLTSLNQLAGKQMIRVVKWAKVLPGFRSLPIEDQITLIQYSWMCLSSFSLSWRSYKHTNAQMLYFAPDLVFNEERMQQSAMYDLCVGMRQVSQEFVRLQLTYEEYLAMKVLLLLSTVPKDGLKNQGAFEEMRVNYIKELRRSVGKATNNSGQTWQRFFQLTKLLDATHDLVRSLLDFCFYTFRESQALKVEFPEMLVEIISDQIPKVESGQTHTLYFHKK
Experimental: (§1) The U2OS cells used to establish the MR reporter cell lines were obtained from and verified by ECACC (UK Health Security Agency, Porton Down, Salisbury, UK). The strategy used has been described previously to establish other NR-based cell lines.[42] First, the different pSG5-GAL4(DBD)-MRs (LBD) and (GAL4RE)5βGlob-Luc-SVNeo plasmids were tested by transient transfections in U2OS. Then, the UG5LN-GAL4-hMR and UG5LN-GAL4-zfMR clonal cells were generated in two steps. The first step was to establish clonal UG5LN cells by a stable transfection of U2OS cells, considered as steroid receptor negative, with the plasmid (GAL4RE)5βGlob-Luc-SVNeo. The second step consisted of the transfection of UG5LN cells with the plasmids pSG5-GAL4(DBD)-hMR(LBD)-puro, pSG5-GAL4(DBD)-hMRT870L(LBD)-puro or pSG5-GAL4(DBD)-zfMR(LBD)-puro, to generate UG5LN-GAL4-hMR, UG5LN-GAL4-hMRT870L and UG5LN-GAL4-zfMR clonal cells, respectively. Stable cell clones were selected in the presence of puromycin 0.5 μg/mL and G418 1 mg/mL. For each receptor, 5 to 10 clones were chosen for their ligand-induced luciferase expression. The clones were amplified and luciferase expression was checked at several passages. For each receptor, the clone with the best induction of luciferase activity was selected and used for the screening of the different chemicals. The stability and the inducibility of luciferase expression were checked during at least 20 passages (20 weeks).
(§2) To perform the reporter gene assay, cells were seeded in 96-wells white transparent culture plates (Greiner bio-one 655098CellStar; Dutscher, Brumath, France) at a density of 60,000 cells per well in 150 μL of culture medium and incubated at 37°C and 5% CO2 for 24 h. Then, after the attachment period, medium was removed and cells were exposed to increasing dilutions of the tested compounds in the experimental medium (DMSO; final concentration 0.1% v/v for chemicals and 0.3% v/v for water sample extracts) and incubated at 37°C and 5% CO2. After 24 h, medium was removed and replaced with 50 μL/well of experimental medium containing 0.3 mM luciferin. The luminescence signal was monitored in intact live cells for 2 s per well using a MicroBeta Wallac luminometer (PerkinElmer, Courtaboeuf, France). All experiments were performed in quadruplicate.
(§3) The quantification and statistical analysis are integral parts of the software used (GraphPad Prism 10, GraphPad Software Inc). The compounds were tested at different concentrations in at least three independent experiments. In each experiment, the compounds were tested in quadruplicate for each concentration, and the data were expressed as averages of the quadruplicates with their standard deviation to obtain a single value for that experimental series. Then, individual dose-response curves for each chemical were fitted from the averages of the three individual experiments using the sigmoidal dose-response function of the graphics and statistics software program GraphPad. Specifically, GraphPad employs nonlinear regression with the least squares method to fit the data to a sigmoidal function (based on the Hill equation). This method is used to determine the optimal parameter values, such as the Half Maximal Effective concentration (EC50) for agonist and the Half Maximal Inhibitory Concentration (IC50) for antagonist. […] Once the best-fit curve was obtained, the confidence intervals (e.g., 95% CI) for these parameters were estimated based on the uncertainty (variance) derived from the regression model, and the lower and upper 95% confidence limits of EC50s and IC50s were reported.

[2] = target: T1, human MR (hMR) (Homo sapiens, UniProt P08235); experiment: UG5LN-GAL4-hMR luciferase reporter cell assay (agonism and antagonism tests); assay type: cell-based; settings: for % min act: % of maximal luciferase activity induced by 10^−8 M aldosterone
T1 construct: hMR(LBD) (G671-K894) and zfMR(LBD) (L668-K970) have been amplified by PCR; expressed in transfected cells
T1 sequence (P08235 671-984 limits assumed): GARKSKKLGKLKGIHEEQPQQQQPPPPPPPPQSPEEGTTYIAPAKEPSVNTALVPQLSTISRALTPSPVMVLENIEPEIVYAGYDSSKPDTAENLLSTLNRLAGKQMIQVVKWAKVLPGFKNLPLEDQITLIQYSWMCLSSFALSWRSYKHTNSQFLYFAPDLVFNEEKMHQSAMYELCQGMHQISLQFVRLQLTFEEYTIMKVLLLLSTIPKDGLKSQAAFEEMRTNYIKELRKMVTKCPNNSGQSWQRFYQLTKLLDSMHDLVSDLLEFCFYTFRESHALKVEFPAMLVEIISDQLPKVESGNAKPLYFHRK
Experimental: as §1, §2, §3

[3] = in words, UG5LN-GAL4-zfMR cells
[4] = environmental chemicals at 10^−5 M, antagonism test
[5] = environmental chemicals, antagonism test with aldosterone 10^−9 M, UG5LN-GAL4-hMR, read-out: IC50
[6] = environmental chemicals, antagonism test with aldosterone 0.5 10^−9 M, UG5LN-GAL4-zfMR, read-out: IC50
[7] = antagonism test, in presence of aldosterone 10^−9 M, UG5LN-GAL4-hMR cells, read-out: IC50
[8] = antagonism test, in presence of aldosterone 0.5 10^−9 M, UG5LN-GAL4-zfMR cells, read-out: IC50
[9] = antagonism test with aldosterone 10^−9 M, at 10^−5, 10^−6 or 10^−7 M depending on chemical

Molecule | activity profile on zfMR (agonist / partial agonist / antagonist) [1, 3] | % min act [2, 4] [%] | IC50 [2, 5] [nM] | % min act [1] [%] | IC50 [1, 6] [nM] | further results
17α-hydroxyprogesterone [17α-hydroxy progesterone] | full agonists | – | – | – | – | % max act [1]: 97.6 ± 1.2%; EC50 ([1]; UG5LN-GAL4-zfMR cells, listed as 17-α-hydroxy progesterone): 0.24 nM; EC50 ([1]; UG5LN-GAL4-zfMR cells, listed as 17α-hydroxyprogesterone): 0.2 nM
ClC(Cl)=C(c1ccc(Cl)cc1)c1ccccc1Cl [2,4′-DDE, 2,4′DDE] | – | 8.3 ± 1.2 | 470 | 34.8 ± 6.6 | 6900 | –
CC(C)(c1ccc(O)cc1)c1ccc(O)c(Cl)c1 [2-chloro-bisphenol A] | – | 12 ± 8.7 | 1360 | – | 4300 | % min act ([1]; environmental chemicals at 10^−5 M, antagonism test, % of maximal luciferase activity induced by 10^−8 M aldosterone): 13.2 ± 1.3%
CC(C)(C)CC(C)(C)c1ccc(O)cc1 [4-tert-octylphenol] | – | – | 2120 | – | 15800 | –
C[C@]12CCC(=O)C=C1CC[C@@H]1[C@@H]2CC[C@@]2(C)[C@H]1CC[C@]2(O)C(=O)CO [11-deoxycortisol] | partially activate | – | – | – | – | IC50 [2, 7]: 4.4 nM and 4.41 nM; activity profile on hMR (agonist / partial agonist / antagonist) ([2]; in words, UG5LN-GAL4-hMR cells): complete antagonists; EC50 ([1]; UG5LN-GAL4-zfMR cells): 0.73 nM; REP (relative potency) ([1]; ratio of EC50 values aldosterone/chemical, aldosterone set at 1): 0.41
Oc1ccc(C(c2ccc(O)cc2)C(Cl)(Cl)Cl)cc1 [HPTE] | – | 12.3 ± 1.5 | 2060 | 51 ± 6.8 | 11100 | –
ClC1=C(Cl)C2(Cl)C3C4C=CC(C4)C3C1(Cl)C2(Cl)Cl (stereo not shown) [aldrin] | – | – | 390 | – | 2170 | –
CC(C)(c1ccc(O)cc1)c1ccc(O)cc1 [bisphenol A, Bisphenol A] | – | – | 2280 | – | 5150 | –
C[C@]12CCC(=O)C=C1C=C[C@@H]1[C@@H]2CC[C@@]2(C)[C@H]1CC[C@@]21CCC(=O)O1 [canrenone] | full antagonists | – | – | – | – | IC50 [2, 7]: 17 nM and 16.7 nM; activity profile on hMR (agonist / partial agonist / antagonist) ([2]; in words, UG5LN-GAL4-hMR cells): full antagonists; IC50 [1, 8]: 18 nM and 18.4 nM
O=C1C2(Cl)C3(Cl)C4(Cl)C(Cl)(Cl)C5(Cl)C3(Cl)C1(Cl)C5(Cl)C24Cl (stereo not shown) [chlordecone] | – | 8.4 ± 1 | 1210 | 28.6 ± 0.3 | 5590 | –
C[C@]12CCC(=O)C[C@@H]1CC[C@@H]1[C@@H]2CC[C@]2(C)[C@@H](O)CC[C@@H]12 [dihydrotestosterone] | – | – | – | – | – | activity profile on hMR (agonist / partial agonist / antagonist) [2]: full antagonists; IC50 ([2]; IC50): 60 nM; activity profile on zfMR (agonist / partial agonist / antagonist) [1]: full antagonists; IC50 ([1]; IC50): 35 nM and 34.9 nM
O=S1OCC2C(CO1)C1(Cl)C(Cl)=C(Cl)C2(Cl)C1(Cl)Cl (stereo not shown) [endosulfan] | – | – | 1010 | – | 8400 | –
CC#C[C@]1(O)CC[C@H]2[C@@H]3CCC4=CC(=O)CCC4=C3[C@@H](c3ccc(N(C)C)cc3)C[C@@]21C [mifepristone] | full antagonists | – | – | – | – | activity profile on hMR (agonist / partial agonist / antagonist) ([2]; in words, UG5LN-GAL4-hMR cells): full antagonists; IC50 [1, 8]: 1050 nM
CC(=O)[C@H]1CC[C@H]2[C@@H]3CC=C4C[C@@H](O)CC[C@]4(C)[C@H]3CC[C@]12C [pregnenolone] | full antagonists | – | – | 4.1 ± 0.2 | – | % min act [2, 9]: 6.0 ± 1%; IC50 [2, 7]: 68 nM and 67.7 nM; activity profile on hMR (agonist / partial agonist / antagonist) ([2]; in words, UG5LN-GAL4-hMR cells): full antagonists; IC50 [1, 8]: 166 nM
CCCOCCN(C(=O)CCl)c1c(CC)cccc1CC [pretilachlore] | – | 21.5 ± 1.7 | 3510 | 21 ± 0.7 | 4710 | –
CC(=O)[C@H]1CC[C@H]2[C@@H]3CCC4=CC(=O)CC[C@]4(C)[C@H]3CC[C@]12C [progesterone] | partially activate | – | – | – | – | –
CCC(=O)[C@@]1(C)CC[C@H]2[C@@H]3CCC4=CC(=O)CCC4=C3CC[C@@]21C [promegestone] | full antagonists | – | – | – | – | IC50 [2, 7]: 169 nM; activity profile on hMR (agonist / partial agonist / antagonist) ([2]; in words, UG5LN-GAL4-hMR cells): full antagonists; IC50 [1, 8]: 291 nM
ClC1=C(Cl)[C@]2(Cl)[C@H]3[C@H]([C@H](Cl)C(Cl)[C@@H]3Cl)[C@@]1(Cl)C2(Cl)Cl (stereo partly shown) [transnonachlore] | – | 10 ± 0.9 | 610 | 57.8 ± 9 | – | –
C=CC(C)(O)C(=O)Nc1cc(Cl)cc(Cl)c1 (stereo not shown) [vinclozoline M2, Vinclozolin M2] | – | 28 ± 3.3 | 5960 | 31 ± 0.5 | 7000 | –
Bisphenol C | – | 51 ± 6 | 13200 | – | 11800 | –
Nonylphenol mixture | – | 12 ± 2.5 | 1560 | 40.7 ± 4.8 | 9200 | –
dihydroprogesterone | full antagonists | – | – | 5 ± 0.5 | – | % min act [2, 9]: 11 ± 2%; IC50 [2, 7]: 395 nM; activity profile on hMR (agonist / partial agonist / antagonist) ([2]; in words, UG5LN-GAL4-hMR cells): full antagonists; IC50 [1, 8]: 186 nM
